Laboratory results as given in patent publication US4206215A, “Antimicrobial bis-[4-(substituted-amino)-1-pyridinium]alkanes” (Sterling Drug Inc., priority 1977, dated 1980).

Legend:
P. mirab. MGH-1 = test: In vitro antibacterial activity, MIC (modified Autotiter method); type: cell-based, Proteus mirabilis; conditions: 18-20 hours at 37° C.; for MIC: Proteus mirabilis, 20 h, read-out: MIC P. mirab. MGH-1
Description: (§1) The antibacterial and antifungal activity of representative examples of the compounds of Formula I was determined using a modification of the Autotiter method described by Goss, et al. Applied Microbiology 16 (9) 1,414-1,416 (1968) in which a 1,000 mcg./ml. solution of the test compound is prepared. To the first cup of the Autotray is added 0.1 ml. of the test solution. Activation of the Autotiter initiates a sequence of operations by which 0.05 ml. of the test compound solution is withdrawn from the cup by a Microtiter transfer loop and diluted in 0.05 ml. of sterile water. Following this operation, 0.05 ml. of inoculated double-strength semisynthetic medium (glucose) is added automatically to each cup. The overall operation results in final drug concentrations ranging from 500 to 0.06 mcg./ml. in twofold decrements. […] The compounds were thus tested as solutions against a variety of gram positive and gram negative bacteria including Staphylococcus aureus, Proteus mirabilis, Escherichia coli, Klebsiella pneumoniae, Pseudomonas aeruginosa, Streptococcus pyogenes, and against such fungi as Aspergillus niger, Candida albicans and Trichophyton mentagrophytes.

A. niger 16404 = test: In vitro antifungal activity, MIC (modified Autotiter method); type: cell-based, Aspergillus niger; conditions: 18-20 hours at 37° C.; for MIC: Aspergillus niger, 16404, 20 h, read-out: MIC A. niger 16404
Description: as §1

Ps. aerug. MGH-2 = test: In vitro antibacterial activity, MIC (modified Autotiter method); type: cell-based, Pseudomonas aeruginosa; conditions: 18-20 hours at 37° C.; for MIC: Pseudomonas aeruginosa, 20 h, read-out: MIC Ps. aerug. MGH-2
Description: as §1

T. menta. 9129 = test: In vitro antifungal activity, MIC (modified Autotiter method); type: cell-based, Trichophyton mentagrophytes; conditions: 18-20 hours at 37° C.; for MIC: Trichophyton mentagrophytes, 20 h, read-out: MIC T. menta. 9129
Description: as §1

S. Aureus Smith = test: In vitro antibacterial activity, MIC (modified Autotiter method); type: cell-based, Staphylococcus aureus; conditions: 18-20 hours at 37° C.; for MIC: Staphylococcus aureus, 20 h, read-out: MIC S. Aureus Smith
Description: as §1

C. albicans Wisc. = test: In vitro antifungal activity, MIC (modified Autotiter method); type: cell-based, Candida albicans; conditions: 18-20 hours at 37° C.; for MIC: Candida albicans, 20 h, read-out: MIC C. albicans Wisc.
Description: as §1

C. albicans 10231 = test: as above; type: cell-based, Candida albicans; conditions: 18-20 hours at 37° C.; for MIC: Candida albicans, 10231, 20 h, read-out: MIC C. albicans 10231
Description: as §1

E. coli 100/B22 = test: In vitro antibacterial activity, MIC (modified Autotiter method); type: cell-based, Escherichia coli; conditions: 18-20 hours at 37° C.; for MIC: Escherichia coli, 100/B22, 20 h, read-out: MIC E. coli 100/B22
Description: as §1

E. coli AB1932-1 = test: as above; type: cell-based, Escherichia coli; conditions: 18-20 hours at 37° C.; for MIC: Escherichia coli, AB19321, 20 h, read-out: MIC E. coli AB1932-1
Description: as §1

E. coli Vogel = test: as above; type: cell-based, Escherichia coli; conditions: 18-20 hours at 37° C.; for MIC: Escherichia coli, 20 h, read-out: MIC E. coli Vogel
Description: as §1

K. pneum. 39645 = test: as above; type: cell-based, Klebsiella pneumoniae; conditions: 18-20 hours at 37° C.; for MIC: Klebsiella pneumoniae, 20 h, read-out: MIC K. pneum. 39645
Description: as §1

S. pyogen. C203 = test: as above; type: cell-based, Streptococcus pyogenes; conditions: 18-20 hours at 37° C.; for MIC: Streptococcus pyogenes, 20 h, read-out: MIC S. pyogen. C203
Description: as §1

Row | Compound | MIC (P. mirab. MGH-1) | MIC (A. niger 16404) | MIC (Ps. aerug. MGH-2) | MIC (T. menta. 9129) | MIC (S. Aureus Smith) | MIC (C. albicans Wisc.) | MIC (C. albicans 10231) | MIC (E. coli 100/B22) | MIC (E. coli AB1932-1) | MIC (E. coli Vogel) | MIC (K. pneum. 39645) | MIC (S. pyogen. C203) | also measured
1 | CCCCCCCCNc1cc[n+](CCCCCCCCCCCCCC[n+]2ccc(NCCCCCCCC)cc2)cc1 [Example 46, 1,14-bis-[4-(octylamino)-1-pyridinium]tetradecane dibromide] | 3.9 µg/mL | 15.6 µg/mL | 3.9 µg/mL | 1.95 µg/mL | 1 µg/mL | 7.8 µg/mL | 7.8 µg/mL | 3.9 µg/mL | 3.9 µg/mL | 7.8 µg/mL | 7.8 µg/mL | 1.95 µg/mL | 
2 | CCCCCCCCCNc1cc[n+](CCCCCCC[n+]2ccc(NCCCCCCCCC)cc2)cc1 [Example 49, 1,7-bis-[4-(nonylamino)-1-pyridinium]heptane dibromide] | 3.9 µg/mL | 7.8 µg/mL | 15.6 µg/mL | 1 µg/mL | 0.5 µg/mL | 1.95 µg/mL | 1.95 µg/mL | 1.95 µg/mL | 1.95 µg/mL | 1 µg/mL | 1.95 µg/mL | 1 µg/mL | 
3 | Fc1ccc(Nc2cc[n+](CCCCCCCC[n+]3ccc(Nc4ccc(F)cc4)cc3)cc2)cc1 [Example 84, 1,8-bis-[4-p-fluorophenylamino)-1-pyridinium]octane dibromide] | > 125 µg/mL | 15.6 µg/mL | > 62.5 µg/mL | 15.6 µg/mL | 1.95 µg/mL | 7.8 µg/mL | 15.6 µg/mL | 15.6 µg/mL | 7.8 µg/mL | 15.6 µg/mL | > 62.5 µg/mL | 7.8 µg/mL | 
4 | CCCCCCNc1cc[n+](CCCCCCCCCCCC[n+]2ccc(NCCCCCC)cc2)cc1 [Example 8] | 7.8 µg/mL |  | 15.6 µg/mL |  | 0.25 µg/mL | 1 µg/mL | 1 µg/mL | 0.5 µg/mL |  |  | 1 µg/mL | 1 µg/mL | MIC A. niger 16404 (A. niger 16404): 7.8 µg/mL; MIC T. menta. 9129 (T. menta. 9129): 1.0 µg/mL; MIC E. coli AB1932-1 (E. coli AB1932-1): 1.0 µg/mL; MIC E. coli Vogel (E. coli Vogel): 1.0 µg/mL
5 | CCCCCCCNc1cc[n+](CCCCCC[n+]2ccc(NCCCCCCC)cc2)cc1 [Example 62C, 1,6-bis-[4-(heptylamino)-1-pyridinium]hexane dichloride] |  |  |  |  |  |  |  |  |  |  |  |  | MIC P. mirab. MGH-1 (P. mirab. MGH-1): > 125 µg/mL; MIC A. niger 16404 (A. niger 16404): 7.8 µg/mL; MIC Ps. aerug. MGH-2 (Ps. aerug. MGH-2): > 62.5 µg/mL; MIC T. menta. 9129 (T. menta. 9129): 3.9 µg/mL; MIC S. Aureus Smith (S. Aureus Smith): 0.24 µg/mL; MIC C. albicans Wisc. (C. albicans Wisc.): 3.9 µg/mL; MIC C. albicans 10231 (C. albicans 10231): 3.9 µg/mL; MIC E. coli 100/B22 (E. coli 100/B22): 1.95 µg/mL; MIC E. coli AB1932-1 (E. coli AB1932-1): 1.95 µg/mL; MIC E. coli Vogel (E. coli Vogel): 3.9 µg/mL; MIC K. pneum. 39645 (K. pneum. 39645): 3.9 µg/mL; MIC S. pyogen. C203 (S. pyogen. C203): 0.98 µg/mL
6 | CCCCCCCCCCCCNc1cc[n+](CCCCCC[n+]2ccc(NCCCCCCCCCCCC)cc2)cc1 [Example 70, 1,6-bis-[4-(dodecylamino)-1-pyridinium]hexane dibromide] | > 62.5 µg/mL | 62.5 µg/mL | > 62.5 µg/mL | 7.8 µg/mL | 7.8 µg/mL | 31.3 µg/mL | 15.6 µg/mL | 62.5 µg/mL | > 62.5 µg/mL | 31.3 µg/mL | > 62.5 µg/mL | 7.8 µg/mL | 
7 | CCCCCCCCCCCCNc1cc[n+](CCCCCCCCCC[n+]2ccc(NCCCCCCCCCCCC)cc2)cc1 [Example 74, 1,10-bis-[4-(dodecylamino)-1-pyridinium]decane dibromide] | > 62.5 µg/mL | > 62.5 µg/mL | > 62.5 µg/mL | 15.6 µg/mL | 15.6 µg/mL | > 62.5 µg/mL | > 62.5 µg/mL | > 62.5 µg/mL | > 62.5 µg/mL | > 62.5 µg/mL | > 62.5 µg/mL | 15.6 µg/mL | 
